Legend:
[1] = LEED study: endoscopic healing of erosive esophagitis / LA grade improvement after 4 weeks; assay type: in vivo, human; conditions: lansoprazole 30 mg QD
Description: The severity of esophagitis is typically indicated using the Los Angeles (LA) classification of reflux esophagitis, which is based on an endoscopic assessment of the patient. The LA grade scoring system divides reflux esophagitis into four categories (LA grade A to D) based on the extent of esophageal mucosal breaks. […] LA grade C esophagitis is defined as one or more mucosal breaks that are continuous between the tops of two mucosal folds, but which involves less than 75% of the esophageal circumference. The most severe form, LA grade D esophagitis, is defined as one or more mucosal breaks involving at least 75% of the esophageal circumference (Lundell et al., Gut 1999, vol. 45, p. 172-180).
As used herein, the terms “improvement of the LA grade” and “LA grade improvement” refer to one or more steps from one LA grade to a lower LA grade (such as from grade D to grade C, B or A) or to being healed. In some embodiments, the improvement of the LA grade is 1 step. In some embodiments, the improvement of the LA grade is 2 steps. In some embodiments, the improvement of the LA grade is 3 steps. In some embodiments, the improvement of the LA grade is 4 steps.
The study included patients with erosive esophagitis (eGERD). Patients were divided into two cohorts, one with patients having moderate to severe eGERD (LA grade C/D) and one with patients having milder eGERD (LA grade A/B) with a history of only partial response to PPI-treatment. The primary endpoint of the study was to support dose selection of linaprazan glurate for the phase III program in eGERD, through central assessment of healing of erosive esophagitis after four weeks of treatment. The sample size, i.e., the number of patients needed, for measuring dose related efficacy was based on the patient cohort with moderate to severe eGERD. After initial endoscopy and other screening procedures, 248 patients were randomized equally into one of five treatment groups, receiving either four weeks treatment with linaprazan glurate in four dose levels, or four weeks lansoprazole in the approved standard eGERD healing dose. Thereafter, an endoscopic evaluation of healing was performed, where healing was defined as no presence of esophageal erosions, i.e., no erosive damage to the esophageal mucosa. After the endoscopic evaluation, all patient groups received lansoprazole for four weeks in a maintenance phase. A retrospective central review of the endoscopy findings was performed, and 162 patients were available for evaluation of the primary endpoint. All enrolled 248 patients were included in the safety analysis.
(§1) The study was a randomized, double-blind, active comparator-controlled study with a parallel group design including four arms with linaprazan glurate and one arm with lansoprazole. Pharmacokinetic (PK) blood sampling pre-dose, close before the first and the second dose administration was performed at Day 7, Day 14 and Day 28 visits days in all patients. 248 patients with erosive esophagitis due to GERD LA grade C or D and patients with erosive esophagitis due to GERD LA grade A or B with at least partial symptom response but still endoscopically unhealed after 8 weeks history of standard treatment healing course with PPI, were randomized.
(§2) Randomization to one of the treatments with linaprazan glurate 25 mg, 50 mg, 75 mg, 100 mg twice daily (BID), or lansoprazole 30 mg once daily (QD) was based on a 1:1:1:1:1 scheme. One site could not enroll more than about 20% of the overall number of patients (48 patients per site).
The duration of each patient's participation in the study, including screening, blind treatment period and open-label treatment period, was approximately 60 days. The patients were randomized for 4 weeks (28 days, −2/+5 days) of double-blind treatment and were provided with IMP for 35 days (including one additional blister pack dispensed at Visit 2/Day 0) to allow for treatment up to the visit window. […]

[2] = LEED study: heartburn assessed by mRESQ-eDiary; assay type: in vivo, human
Description: Relief of reflux-related symptoms may be assessed based on the modified Reflux Symptom Reflux Questionnaire-electronic Diary (mRESQ-eDiary), which is an electronic symptom diary developed for use in partial responders to proton pump inhibitors. mRESQ-eD has three domains (i.e., heartburn, other GERD signs/symptoms and regurgitations/reflux) and eight items (Andrae et al., Clin. Transl. Gastroenterol. 2020, 11(1): e00117).
as §1, §2
The duration of each patient's participation in the study, including screening, blind treatment period and open-label treatment period, was approximately 60 days. The patients were randomized for 4 weeks (28 days, −2/+5 days) of double-blind treatment and were provided with IMP for 35 days (including one additional blister pack dispensed at Visit 2/Day 0) to allow for treatment up to the visit window. […] Following the endoscopic evaluation, all patients received subsequent 4 weeks of open-label treatment with lansoprazole 30 mg QD. Repeated symptom evaluation to detect symptom pattern was assessed during this period.
Four doses of linaprazan glurate (25 mg, 50 mg, 75 mg, 100 mg, and dummies) were administered as tablets twice daily. The active comparator lansoprazole 30 mg and its dummy were administered as capsules once daily in the morning. The study drugs were taken with 100 mL of noncarbonated water at least 30 minutes prior to meals. The duration of double-blind treatment was 28 days −2/+5 days. To blind treatment, each patient received 2 tablets (containing doses of linaprazan glurate (LG) or its dummy) and one capsule (containing lansoprazole or its dummy) in the morning and 2 tablets (containing doses of linaprazan glurate (LG) or its dummy) in the evening, according to the scheme below:
A secondary objective of the study was the safety and tolerability of the four dose levels of linaprazan glurate and lansoprazole, with lansoprazole serving as the active comparator. Another secondary objective of the study was the reflux related symptom pattern during the initial 4 weeks treatment with four dose levels of linaprazan glurate and with lansoprazole, and the symptom pattern during the subsequent additional 4 weeks (weeks 5-8) open-label treatment with lansoprazole 30 mg QD. Heartburn-free 24-hour days and 24-hour days with at most mild heartburn symptoms were assessed based on modified eDiary (mRESQ-eD), including splits into day- and nighttime evaluations.
Reflux related symptoms were assessed based on a modified RESQ-eDiary (mRESQ-eD). Patients were asked to report every 12-hours, once before the morning dose and once before the evening dose of the Investigational Medicinal Product (IMP).

[3] = LEED study: safety and tolerability (adverse events); conditions: TEAE, LAN 30 mg QD
[4] = Dynamic vapour sorption (DVS) analysis; assay type: physicochemical
Description: In some embodiments, Form 1 of the HCl salt of linaprazan glurate is stable at a relative humidity up to 90% at a temperature of 25° C.

[5] = week 4, erosive patients all LA grades, LAN 30 mg QD (N = 20)

SMILES: Cc1c(OCC(F)(F)F)ccnc1C[S+]([O-])c1nc2ccccc2[nH]1 (centres unmarked) [lansoprazole, reference compound]
- four-week healing rate ([1]; LA grade A/B): 81%
- healing rate ([1]; LA grade A/B/C/D, 4 weeks, FIG. 8): 69%
- mean LA grade improvement ([1]; LA grade C/D, 4 weeks, FIG. 5): 2.1
- four-week healing rate ([1]; LA grade C/D): 38%
- heartburn severity, rank among groups ([2]; FAS Erosive, first week, morning and evening, lansoprazole 30 mg QD): highest heartburn severity
- severity grade of heartburn, rank among groups ([2]; FAS, first week, morning and evening, lansoprazole 30 mg QD): highest severity grade of heartburn
- heartburn-free days, rank among groups ([2]; LA Grade A/B, week 4, lansoprazole 30 mg QD): most heartburn-free days
- heartburn-free days, rank among groups ([2]; LA Grade A/B, week 6 open-label, lansoprazole group): highest
- heartburn-free days, rank among groups ([2]; LA Grade C/D, week 2-4, lansoprazole 30 mg QD): lowest percentage of heartburn-free days
- heartburn-free days, rank among groups ([2]; LA Grade C/D, week 5-8 open-label, lansoprazole group): lowest percentage of heartburn-free days
- % at most mild symptoms 24-hour days (mean) [2, 5]: 88%
- % heartburn-free 24-hour days (mean) [2, 5]: 52%
- Patients (%) totally free from heartburn [2, 5]: 32%
- Patients (%) with at most mild heartburn [2, 5]: 79%
- Patients (%) with non-mild heartburn [2, 5]: 21%
- COVID-19 (%) [3]: 4.0%
- COVID-19 events [3]: 2 events
- Constipation (%) [3]: 0.0%
- Constipation events [3]: 0 events
- Headache (%) [3]: 2.0%
- Headache events [3]: 1 events
- Nausea (%) [3]: 8.0%
- Nausea events [3]: 4 events

SMILES: Cc1cccc(C)c1CNc1cc(C(=O)NCCOC(=O)CCCC(=O)O)cn2c(C)c(C)nc12
- water uptake ([4]; 90% RH): about 0.2%
- water content of the crystals on humidity changes ([4]; about 30% to about 80% RH): remains substantially constant
- hygroscopicity ([4]; dynamic vapour sorption): very low hygroscopicity
